Results from patent US20150105252A1, “SUBSTITUTED PYRAZOLES AS HERBICIDES” (E I DU PONT DE NEMOURS AND COMPANY, priority 2013, published 2015).

What was measured:
pigweed [1] = test: Test A postemergence; assay type: in vivo, Amaranthus retroflexus; settings: Postemergence
Method in brief: (§1)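 Pre- and postemergence greenhouse test; loam+sand; cpd in non-phytotox. solvent/surfactant; post at 1–2 leaf, 2–10 cm; visual score ~10 d, 0 = none, 100 = complete control.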

crabgrass, large [2] = test: Test A postemergence; assay type: in vivo, Digitaria sanguinalis
Method in brief: as §1

soybean = test: Test C preemergence; assay type: in vivo, Glycine max; settings: preemergence; for Plant response rating, Soybean: 125 g ai/ha, scale 0 to 100, 0 = no effect, 100 = complete control
Method in brief: (§2)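 Greenhouse pot test: preemergence application onto freshly seeded loam/sand mix, postemergence application onto seedlings (1–4 leaves, 2–18 cm) in peat-vermiculite substrate. Responses scored visually 13 to 15 days later relative to controls, where 0 means no effect and 100 means complete control; a dash indicates no result.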

morningglory = test: Test A preemergence; assay type: in vivo, Ipomoea spp.; settings: preemergence; for Morningglory plant response rating (0 to 100 scale): 125 g ai/ha, visual injury approx. 10 days after treatment; for Morningglory plant response rating: 500 g ai/ha, visual injury after approx. 10 days, 0 to 100 scale (0 no effect, 100 complete control)
Method in brief: as §1

crabgrass, large [3] = test: Test C preemergence; assay type: in vivo, Digitaria sanguinalis; settings: preemergence; for Plant response rating, Crabgrass, Large: 125 g ai/ha, scale 0 to 100, 0 = no effect, 100 = complete control
Method in brief: as §2

barnyardgrass = test: Test A postemergence; assay type: in vivo, Echinochloa crus-galli
Method in brief: as §1

corn = test: Test A preemergence; assay type: in vivo, Zea mays; settings: preemergence; for Corn plant response rating (0 to 100 scale): 125 g ai/ha, visual injury approx. 10 days after treatment; for Corn plant response rating: 500 g ai/ha, visual injury after approx. 10 days, 0 to 100 scale (0 no effect, 100 complete control)
Method in brief: as §1

blackgrass = test: Test C preemergence; assay type: in vivo, Alopecurus myosuroides; settings: preemergence; for Plant response rating, Blackgrass: 125 g ai/ha, scale 0 to 100, 0 = no effect, 100 = complete control
Method in brief: as §2

wheat = test: Test C preemergence; assay type: in vivo, Triticum aestivum; settings: preemergence; for Plant response rating, Wheat: 125 g ai/ha, scale 0 to 100, 0 = no effect, 100 = complete control
Method in brief: as §2

pigweed [4] = test: Test A preemergence; assay type: in vivo, Amaranthus retroflexus; settings: preemergence; for Pigweed plant response rating (0 to 100 scale): 125 g ai/ha, visual injury approx. 10 days after treatment; for Pigweed plant response rating: 500 g ai/ha, visual injury after approx. 10 days, 0 to 100 scale (0 no effect, 100 complete control)
Method in brief: as §1

galium = test: Test C preemergence; assay type: in vivo, Galium aparine; settings: preemergence; for Plant response rating, Galium: 125 g ai/ha, scale 0 to 100, 0 = no effect, 100 = complete control
Method in brief: as §2

johnsongrass = test: Test C preemergence; assay type: in vivo, Sorghum halepense; settings: preemergence; for Plant response rating, Johnsongrass: 125 g ai/ha, scale 0 to 100, 0 = no effect, 100 = complete control
Method in brief: as §2

oilseed rape = test: Test C preemergence; assay type: in vivo, Brassica napus; settings: preemergence; for Plant response rating, Oilseed Rape: 125 g ai/ha, scale 0 to 100, 0 = no effect, 100 = complete control
Method in brief: as §2

ducksalad = test: Test B flood; assay type: in vivo, Heteranthera limosa; settings: 250 g ai/ha, visual rating on 0 to 100 scale (0 no effect, 100 complete control), 13 to 15 days
Method in brief: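 Visual ratings on a 0–100 scale, where 0 means no effect and 100 means complete control, were assigned by comparison with controls 13 to 15 days after treatment. Compounds went into paddy water over 2-leaf plants flooded to 3 cm.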

[5] = 125 g ai/ha, 0 to 100 scale, 0 no effect, 100 complete control
[6] = 500 g ai/ha, 0 to 100 scale (0 no effect, 100 complete control)
[7] = Postemergence, 500 g ai/ha, 0 to 100 scale (0 no effect, 100 complete control)
[8] = postemergence, 125 g ai/ha, about 10 days, visual rating on 0 to 100 scale (0 no effect, 100 complete control)
[9] = 31 g ai/ha, visual rating, scale 0 to 100 (0 no effect, 100 complete control), 13 to 15 days
[10] = 62 g ai/ha, scale 0 to 100 (0 no effect, 100 complete control), 13 to 15 days
[11] = 250 g ai/ha, scale 0 to 100, 0 is no effect, 100 is complete control

Structure (SMILES): CCOc1cc(C(=O)NC(C)C)nn1Cc1ccnc(C(F)(F)F)c1 [Compound 188]
- Pigweed plant response rating (pigweed [1]; [5]): 100
- Pigweed plant response rating (pigweed [1]; [6]): 100
- Crabgrass, Large plant response rating (crabgrass, large [2]; [7]): 90
- Crabgrass, Large plant response rating (crabgrass, large [2]; [8]): 90
- Soybean plant response rating (soybean; [9]): 90
- Soybean plant response rating (soybean; [10]): 90
- Plant response rating, Soybean (soybean; 13 to 15 days): 95
- Soybean plant response rating (soybean; [11]): 98
- Morningglory plant response rating (0 to 100 scale) (morningglory): 100
- Morningglory plant response rating (morningglory): 100
- Crabgrass, Large plant response rating (crabgrass, large [3]; [9]): 100
- Crabgrass, Large plant response rating (crabgrass, large [3]; [10]): 100
- Plant response rating, Crabgrass, Large (crabgrass, large [3]; 13 to 15 days): 100
- Crabgrass, Large plant response rating (crabgrass, large [3]; [11]): 100
- Barnyardgrass plant response rating (barnyardgrass; [7]): 90
- Barnyardgrass plant response rating (barnyardgrass; [8]): 90
- Corn plant response rating (0 to 100 scale) (corn): 100
- Corn plant response rating (corn): 100
- Blackgrass plant response rating (blackgrass; [9]): 90
- Blackgrass plant response rating (blackgrass; [10]): 90
- Plant response rating, Blackgrass (blackgrass; 13 to 15 days): 90
- Blackgrass plant response rating (blackgrass; [11]): 90
- Wheat plant response rating (wheat; [9]): 85
- Wheat plant response rating (wheat; [10]): 90
- Plant response rating, Wheat (wheat; 13 to 15 days): 90
- Wheat plant response rating (wheat; [11]): 90
- Pigweed plant response rating (0 to 100 scale) (pigweed [4]): 100
- Pigweed plant response rating (pigweed [4]): 100
- Galium plant response rating (galium; [9]): 98
- Galium plant response rating (galium; [10]): 100
- Plant response rating, Galium (galium; 13 to 15 days): 100
- Galium plant response rating (galium; [11]): 100
- Johnsongrass plant response rating (johnsongrass; [9]): 80
- Johnsongrass plant response rating (johnsongrass; [10]): 98
- Plant response rating, Johnsongrass (johnsongrass; 13 to 15 days): 100
- Johnsongrass plant response rating (johnsongrass; [11]): 100
- Oilseed Rape plant response rating (oilseed rape; [9]): 100
- Oilseed Rape plant response rating (oilseed rape; [10]): 100
- Plant response rating, Oilseed Rape (oilseed rape; 13 to 15 days): 100
- Oilseed Rape plant response rating (oilseed rape; [11]): 100
- Plant response rating, Ducksalad (ducksalad): 90

Structure (SMILES): CCOc1cc(C(=O)NC2CC2)nn1Cc1ccnc(C(F)(F)F)c1 [Compound 189]
- Pigweed plant response rating (pigweed [1]; [5]): 80
- Pigweed plant response rating (pigweed [1]; [6]): 100
- Crabgrass, Large plant response rating (crabgrass, large [2]; [7]): 90
- Crabgrass, Large plant response rating (crabgrass, large [2]; [8]): 90
- Soybean plant response rating (soybean; [9]): 20
- Soybean plant response rating (soybean; [10]): 95
- Plant response rating, Soybean (soybean; 13 to 15 days): 98
- Soybean plant response rating (soybean; [11]): 98
- Morningglory plant response rating (0 to 100 scale) (morningglory): 100
- Morningglory plant response rating (morningglory): 100
- Crabgrass, Large plant response rating (crabgrass, large [3]; [9]): 100
- Crabgrass, Large plant response rating (crabgrass, large [3]; [10]): 100
- Plant response rating, Crabgrass, Large (crabgrass, large [3]; 13 to 15 days): 100
- Crabgrass, Large plant response rating (crabgrass, large [3]; [11]): 100
- Barnyardgrass plant response rating (barnyardgrass; [7]): 90
- Barnyardgrass plant response rating (barnyardgrass; [8]): 90
- Corn plant response rating (0 to 100 scale) (corn): 80
- Corn plant response rating (corn): 100
- Blackgrass plant response rating (blackgrass; [9]): 90
- Blackgrass plant response rating (blackgrass; [10]): 90
- Plant response rating, Blackgrass (blackgrass; 13 to 15 days): 90
- Blackgrass plant response rating (blackgrass; [11]): 90
- Wheat plant response rating (wheat; [9]): 40
- Wheat plant response rating (wheat; [10]): 80
- Plant response rating, Wheat (wheat; 13 to 15 days): 90
- Wheat plant response rating (wheat; [11]): 90
- Pigweed plant response rating (0 to 100 scale) (pigweed [4]): 0
- Pigweed plant response rating (pigweed [4]): 0
- Galium plant response rating (galium; [9]): 90
- Galium plant response rating (galium; [10]): 95
- Plant response rating, Galium (galium; 13 to 15 days): 100
- Galium plant response rating (galium; [11]): 100
- Johnsongrass plant response rating (johnsongrass; [9]): 65
- Johnsongrass plant response rating (johnsongrass; [10]): 98
- Plant response rating, Johnsongrass (johnsongrass; 13 to 15 days): 100
- Johnsongrass plant response rating (johnsongrass; [11]): 100
- Oilseed Rape plant response rating (oilseed rape; [9]): 98
- Oilseed Rape plant response rating (oilseed rape; [10]): 95
- Plant response rating, Oilseed Rape (oilseed rape; 13 to 15 days): 95
- Oilseed Rape plant response rating (oilseed rape; [11]): 95
- Plant response rating, Ducksalad (ducksalad): 85

Structure (SMILES): CCONC(=O)c1cc(OCC)n(Cc2ccnc(C(F)(F)F)c2)n1 [Compound 195]
- Pigweed plant response rating (pigweed [1]; [5]): 100
- Pigweed plant response rating (pigweed [1]; [6]): 100
- Crabgrass, Large plant response rating (crabgrass, large [2]; [7]): 100
- Crabgrass, Large plant response rating (crabgrass, large [2]; [8]): 80
- Soybean plant response rating (soybean; [9]): 5
- Soybean plant response rating (soybean; [10]): 5
- Plant response rating, Soybean (soybean; 13 to 15 days): 25
- Soybean plant response rating (soybean; [11]): 60
- Morningglory plant response rating (0 to 100 scale) (morningglory): 90
- Morningglory plant response rating (morningglory): 100
- Crabgrass, Large plant response rating (crabgrass, large [3]; [9]): 100
- Crabgrass, Large plant response rating (crabgrass, large [3]; [10]): 95
- Plant response rating, Crabgrass, Large (crabgrass, large [3]; 13 to 15 days): 100
- Crabgrass, Large plant response rating (crabgrass, large [3]; [11]): 100
- Barnyardgrass plant response rating (barnyardgrass; [7]): 90
- Barnyardgrass plant response rating (barnyardgrass; [8]): 70
- Corn plant response rating (0 to 100 scale) (corn): 0
- Corn plant response rating (corn): 90
- Blackgrass plant response rating (blackgrass; [9]): 5
- Blackgrass plant response rating (blackgrass; [10]): 90
- Plant response rating, Blackgrass (blackgrass; 13 to 15 days): 90
- Blackgrass plant response rating (blackgrass; [11]): 90
- Wheat plant response rating (wheat; [9]): 0
- Wheat plant response rating (wheat; [10]): 45
- Plant response rating, Wheat (wheat; 13 to 15 days): 85
- Wheat plant response rating (wheat; [11]): 90
- Pigweed plant response rating (0 to 100 scale) (pigweed [4]): 100
- Pigweed plant response rating (pigweed [4]): 100
- Galium plant response rating (galium; [9]): 0
- Galium plant response rating (galium; [10]): 85
- Plant response rating, Galium (galium; 13 to 15 days): 95
- Galium plant response rating (galium; [11]): 100
- Johnsongrass plant response rating (johnsongrass; [9]): 5
- Johnsongrass plant response rating (johnsongrass; [10]): 30
- Plant response rating, Johnsongrass (johnsongrass; 13 to 15 days): 75
- Johnsongrass plant response rating (johnsongrass; [11]): 85
- Oilseed Rape plant response rating (oilseed rape; [9]): 30
- Oilseed Rape plant response rating (oilseed rape; [10]): 85
- Plant response rating, Oilseed Rape (oilseed rape; 13 to 15 days): 95
- Oilseed Rape plant response rating (oilseed rape; [11]): 98
- Plant response rating, Ducksalad (ducksalad): 95
